According to US20070099907A1 (priority 2002, published 2007):
“Also recorded” adds a separate entry of the source.

Key:
[1] = tested on: patients who had an ACS; conditions: cited from earlier work
[2] = tested on: postischemic cardiac dysfunction; conditions: cited from earlier work
[3] = tested on: patients with acute coronary syndromes without ST-segment elevation; assay: Open, randomized, single-blind pilot study of meloxicam added to aspirin and heparin: cardiovascular events; assay type: in vivo, human
Method: (§1) Patients were recruited from the Centro de Salud and the Centro Modelo de Cardiologia, Tucuman, Argentina. Inclusion criteria were chest pain within the previous 24 hours associated with ST-segment depression (>0.5 mm) and either ECG evidence of ischemia or previously documented coronary artery disease. Exclusion criteria were persistent ST-segment elevation and increased levels of the MB isoenzyme of creatine kinase (CK-MB) consistent with acute myocardial infarction, revascularization procedures within the preceding 6 months, malignancy, pregnancy, renal or hepatic diseases, use of anticoagulant therapy, treatment with anti-inflammatory drugs, or contraindication of the study drugs. […] Both groups received aspirin for 30 days. The dose range was 100 to 300 mg per day at the discretion of the treating physician. CK-MB levels were measured before randomization. Additional assays were performed after an episode of chest pain to confirm the diagnosis of acute MI. All patients received subcutaneous LMWH (either nadroparin 87 IU/kg BID or enoxaparin 1 mg/kg BID) or intravenous UFH given as an initial bolus of 5000 IU followed by continuous infusion at 1000 IU per hour for 7 days or until discharge from the hospital. The activated partial-thromboplastin time (APTT) was used to assess the degree of anticoagulation in patients receiving intravenous unfractionated heparin. Patients were tested every 12 hours on the first day and every 24 hours subsequently. The APTT was maintained in the range 45 to 87 seconds (normal value, 30±5 seconds).
[…] An additional secondary composite variable was determined: MI, death, and all revascularization procedures (percutaneous transluminal coronary angioplasty [PTCA] or coronary artery graft surgery [CABG]). Each component of the primary and secondary outcome variable was also recorded separately. […] Cardiac catheterization was performed at the discretion of treating physicians, but only urgent PTCA and CABG, usually after recurrent angina or MI, were considered as end points. Revascularization procedures were indicated after recurrence of chest pain refractory to medical treatment. During CCU stay and after discharge, all patients were examined for clinical events by an investigator who was unaware of treatment allocation. Patients were also instructed to report any events to study personnel immediately. The diagnostic criteria for MI were chest pain lasting 20 minutes or more with ECG changes and an at least 2-fold elevation of CK-MB. Recurrent angina was defined as recurrence of chest pain with ECG changes refractory to medical therapy (aspirin, heparin, nitroglycerin, and β-blockers).
Relative risks (RRs) and their 95% CI were obtained. The RR reduction (RRR) is defined as 1 minus RR and expressed as percentage. The absolute risk reduction (ARR) was calculated as the difference between the risk in control patients minus the risk in treated patients and expressed as percentage. A multiple logistic regression model was used to determine the predictive value of the variables associated with events at day 90 in the previous univariate analysis. The software used were CSS/Statistics 3.1 (StatSoft Corp) and EPI INFO 6 v.6.04, 1996.

[4] = after bolus intravenous dose of 15 mg meloxicam; cited from earlier work
[5] = tested on: patients with acute coronary syndromes without ST-segment elevation; assay: Safety observations in the pilot study; assay type: in vivo, human; conditions: throughout the course of the study; meloxicam 15 mg/day + aspirin + heparin
Method: as §1, with “An open, randomized, prospective, single-blind pilot study of the use of meloxicam in ACS patients without ST-segment elevation was performed. Patients” for “Patients”, “The activated partial-thromboplastin time (APTT) was used to assess the degree of anticoagulation in patients receiving intravenous unfractionated heparin. Patients were tested every 12 hours on the first day and every 24 hours subsequently. The APTT was maintained in the range 45 to 87 seconds (normal value, 30±5 seconds).” left out

[6] = tested on: activated partial-thromboplastin time (APTT); assay: Activated partial thromboplastin time after unfractionated heparin in the pilot study; assay type: in vivo, human; conditions: for Activated Partial Thromboplastin Time, Mean ± SD: patients treated with unfractionated heparin; for Activated Partial Thromboplastin Time, Median: unfractionated heparin
Method: as §1
The nature of the quantitative variables distribution was assessed by the Shapiro-Wilk test. Differences between the 2 treatment groups were analyzed by the Student's t test (independent samples) or the Mann-Whitney test, according to the nature of the distribution. Differences in terms of activated partial thromboplastin time after unfractionated heparin were assessed by a 2-way ANOVA model, with repeated measures in one of the factors (Student Newman-Keuls post-hoc test). Univariate associations between qualitative variables were assessed by X^2 (Yates corrected) and Spearman rank-order correlations.

[7] = tested on: arthritic patients; conditions: compared to patients treated with naproxen; cited from earlier work
[8] = tested on: endothelial COX-2 expression; conditions: cited from earlier work
[9] = 90-day follow-up, cumulative, n=60 per group
[10] = 90-day follow-up, meloxicam group vs control
[11] = 90-day follow-up, meloxicam group vs control, listed as meloxicam
[12] = CCU period, meloxicam group vs control
[13] = CCU period, meloxicam group vs control, listed as meloxicam
[14] = CCU period, n=60 per group, listed as meloxicam

## CC(=O)Oc1ccccc1C(=O)O [ASA, acetylsalicylic acid]
[1]
  reduction of combined incidence of cardiovascular death, MI and stroke: 25%
[2]
  aggravation of postischemic cardiac dysfunction: aggravates postischemic cardiac dysfunction

## Cc1cnc(NC(=O)C2=C(O)c3ccccc3S(=O)(=O)N2C)s1 [Meloxicam, 4-hydroxy-2-methyl-N-(5-methyl-2-thiazolyl)-2H-1,2-benzothiazine-3-carboxamide-1,1-dioxide]
[3]; [9]
  MI + death + revascularization, % (secondary composite): 13.3%
  MI + death + revascularization, n (secondary composite): 8 n
  Recurrent angina + MI + vascular death, % (primary composite): 21.7%
  Recurrent angina + MI + vascular death, n (primary composite): 13 n
  Recurrent angina, %: 20.0%
[3]; 90-day follow-up, cumulative, n=60 per group, listed as meloxicam
  Recurrent angina, %: 20%
[3]; [10]
  ARR %, MI + death + revascularization: 20.0%
  ARR %, recurrent angina: 23.3%
  ARR %, revascularization: 18.3%
  RRR (95% CI), recurrent angina: 53.8 (17-74) %
  RRR (95% CI), recurrent angina + MI + vascular death: 55.1 (22-74) %
  RRR (95% CI), revascularization: 61.0 (14-82) %
[3]; [11]
  RRR (95% CI), MI + death + revascularization: 60.1%
  RRR (95% CI), recurrent angina: 53.8%
  RRR (95% CI), recurrent angina + MI + vascular death: 55.1%
  RRR (95% CI), revascularization: 61%
[3]; 90-day follow-up, n=60 per group
  Revascularization, %: 11.7%
[3]; CCU period, meloxicam + aspirin + heparin vs control aspirin + heparin, n=60 per group
  Recurrent angina, %: 15.0%
[3]; [12]
  ARR %, MI + death + revascularization: 16.7%
  ARR %, all revascularization: 15.0%
  ARR %, recurrent angina: 20.0%
  ARR %, recurrent angina + MI + vascular death: 23.3%
  RRR (95% CI), MI + death + revascularization: 62.5 (11-84) %
  RRR (95% CI), all revascularization: 60.1%
  RRR (95% CI), recurrent angina: 57.1 (14-79) %
  RRR (95% CI), recurrent angina + MI + vascular death: 60.8 (23-80) %
[3]; [13]
  ARR %, all revascularization: 15%
  ARR %, recurrent angina: 20%
  RRR (95% CI), MI + death + revascularization: 62.5%
  RRR (95% CI), all revascularization: 60.8%
  RRR (95% CI), recurrent angina: 57.1%
  RRR (95% CI), recurrent angina + MI + vascular death: 60.8%
[3]; CCU period, n=60 per group
  All revascularization, %: 10.0%
  MI + death + revascularization, % (secondary composite): 10.0%
  MI + death + revascularization, n (secondary composite): 6 n
  Recurrent angina + MI + vascular death, % (primary composite): 15.0%
  Recurrent angina + MI + vascular death, n (primary composite): 9 n
[3]; [14]
  MI + death + revascularization, % (secondary composite): 10%
  Recurrent angina + MI + vascular death, % (primary composite): 15%
[3]; at 30 days
  patients reaching the additional secondary outcome variable (MI, death, revascularization): 11.7%
  patients reaching the primary outcome variable (recurrent angina, MI, or death): 20.0%
[3]; during the 30-day treatment period
  improvement of the ARR in recurrent angina: 3.3%
[3]; meloxicam with aspirin and heparin, ACS without ST-segment elevation
  decrease of the triple end points (recurrent angina, MI and vascular death or MI, death and coronary revascularization procedures): 60%
[3]; within 48 hours of randomization
  patients reaching the primary outcome variable (recurrent angina, MI, or death): 1.7%
[4]
  Cmax: 3000 ng/mL
  tmax: 3 min
[5]
  adverse complications (bleeding complications, side effects, intolerance): No adverse complications; also recorded: No bleeding complications, side effects, or intolerance
[6]; Day 1
  Activated Partial Thromboplastin Time, Mean ± SD: 55.8 ± 26.4 s
  Activated Partial Thromboplastin Time, Median: 48 s
[6]; Day 2
  Activated Partial Thromboplastin Time, Mean ± SD: 69.6 ± 19.9 s
  Activated Partial Thromboplastin Time, Median: 62 s
[6]; Day 3
  Activated Partial Thromboplastin Time, Mean ± SD: 89.9 ± 24.4 s
  Activated Partial Thromboplastin Time, Median: 86 s
[6]; Day 4, control vs meloxicam P < 0.05
  Activated Partial Thromboplastin Time, Mean ± SD: 89.3 ± 20.8 s
[6]; Day 4
  Activated Partial Thromboplastin Time, Median: 84.5 s

## CS(=O)(=O)c1ccc(C2=C(c3ccccc3)C(=O)OC2)cc1 [rofecoxib]
[7]
  risk of heart attack: five-fold higher risk of heart attack

## CC(=O)Oc1cc(C(F)(F)F)ccc1C(=O)O [triflusal]
[8]
  inhibitory activity against endothelial COX-2 expression: very little inhibitory activity
